Measurements from PubChem BioAssay AID1963971 (Molecular Pharmacology Branch, DTP, NCI, 2024).

System: 953936-095-R-J2-PDC spheroids with HUVEC/MSC, viability
Assay: Anticancer human tumor 953936-095-R-J2-PDC patient-derived cervical squamous cell carcinoma cell line growth inhibition [PI3K]
Details: for viability, T/C: stronger effect = lower value
How it was run: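 Agents were dosed from a top concentration near clinical Cmax (otherwise 10 microM) in half-log decrements, alone or combined with PI3K inhibitors. The spheroids contain tumor cells plus endothelial (HUVEC) and MSC stroma; viability is measured.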

[1] = curve of first compound, second compound 0.00316 µM
[2] = curve of first compound, second compound 0.01 µM
[3] = curve of first compound, second compound 0.0316 µM
[4] = curve of first compound, second compound 0.1 µM
[5] = curve of first compound, second compound 0.316 µM
[6] = curve of first compound, second compound 1 µM
[7] = second compound 0.00316 µM, first compound 0.0316 µM
[8] = second compound 0.00316 µM, first compound 0.1 µM
[9] = second compound 0.01 µM, first compound 0.0316 µM
[10] = second compound 0.01 µM, first compound 0.1 µM
[11] = second compound 0.0316 µM, first compound 0.0316 µM
[12] = second compound 0.0316 µM, first compound 0.1 µM
[13] = second compound 0.1 µM, first compound 0.0316 µM
[14] = second compound 0.1 µM, first compound 0.1 µM
[15] = second compound 0.316 µM, first compound 0.0316 µM
[16] = second compound 0.316 µM, first compound 0.1 µM
[17] = second compound 1 µM, first compound 0.0316 µM
[18] = second compound 1 µM, first compound 0.1 µM
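Further: spheroids exposed to compounds for seven days before read-out.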

Compound: CC(=O)c1c(C)c2cnc(Nc3ccc(N4CCNCC4)cn3)nc2n(C2CCCC2)c1=O + COc1c(OCCCN2CCOCC2)ccc2c3n(c(=NC(=O)c4cnc(N)nc4)nc12)CCN3
- IC50 [1]: > 100 nM
- IC50 [2]: > 100 nM
- IC50 [3]: < 0.316 nM
- IC50 [4]: < 0.316 nM
- IC50 [5]: < 0.316 nM
- IC50 [6]: < 0.316 nM
- viability, T/C (second compound 0.00316 µM, first compound 0.000316 µM): 87.4%
- viability, T/C (second compound 0.00316 µM, first compound 0.001 µM): 85.6%
- viability, T/C (second compound 0.00316 µM, first compound 0.00316 µM): 105%
- viability, T/C (second compound 0.00316 µM, first compound 0.01 µM): 88.4%
- viability, T/C [7]: 94.3%
- viability, T/C [8]: 81.4%
- viability, T/C (second compound 0.01 µM, first compound 0.000316 µM): 71.5%
- viability, T/C (second compound 0.01 µM, first compound 0.001 µM): 77.9%
- viability, T/C (second compound 0.01 µM, first compound 0.00316 µM): 82.6%
- viability, T/C (second compound 0.01 µM, first compound 0.01 µM): 78%
- viability, T/C [9]: 76.9%
- viability, T/C [10]: 66.6%
- viability, T/C (second compound 0.0316 µM, first compound 0.000316 µM): 40.5%
- viability, T/C (second compound 0.0316 µM, first compound 0.001 µM): 40.2%
- viability, T/C (second compound 0.0316 µM, first compound 0.00316 µM): 36.7%
- viability, T/C (second compound 0.0316 µM, first compound 0.01 µM): 40.6%
- viability, T/C [11]: 38.2%
- viability, T/C [12]: 37.1%
- viability, T/C (second compound 0.1 µM, first compound 0.000316 µM): 20.1%
- viability, T/C (second compound 0.1 µM, first compound 0.001 µM): 17.4%
- viability, T/C (second compound 0.1 µM, first compound 0.00316 µM): 18.9%
- viability, T/C (second compound 0.1 µM, first compound 0.01 µM): 19.3%
- viability, T/C [13]: 17.6%
- viability, T/C [14]: 18.4%
- viability, T/C (second compound 0.316 µM, first compound 0.000316 µM): 6.83%
- viability, T/C (second compound 0.316 µM, first compound 0.001 µM): 6.01%
- viability, T/C (second compound 0.316 µM, first compound 0.00316 µM): 6.03%
- viability, T/C (second compound 0.316 µM, first compound 0.01 µM): 7.86%
- viability, T/C [15]: 7.33%
- viability, T/C [16]: 5.96%
- viability, T/C (second compound 1 µM, first compound 0.000316 µM): 1.78%
- viability, T/C (second compound 1 µM, first compound 0.001 µM): 1.73%
- viability, T/C (second compound 1 µM, first compound 0.00316 µM): 1.47%
- viability, T/C (second compound 1 µM, first compound 0.01 µM): 1.54%
- viability, T/C [17]: 2.14%
- viability, T/C [18]: 1.68%

Compound: CC1(C)CCC(Nc2ncc(C(F)(F)F)c(-c3c[nH]c4c(P(C)(C)=O)c(C#N)ccc34)n2)CN1 (centres undefined) + COc1c(OCCCN2CCOCC2)ccc2c3n(c(=NC(=O)c4cnc(N)nc4)nc12)CCN3
- IC50 [1]: 31.6 nM
- IC50 [2]: < 31.6 nM
- IC50 [3]: < 31.6 nM
- IC50 [4]: < 31.6 nM
- IC50 [5]: < 31.6 nM
- IC50 [6]: < 31.6 nM
- viability, T/C [7]: 45.6%
- viability, T/C [8]: 47%
- viability, T/C (second compound 0.00316 µM, first compound 0.316 µM): 53.5%
- viability, T/C (second compound 0.00316 µM, first compound 1 µM): 47.1%
- viability, T/C (second compound 0.00316 µM, first compound 3.16 µM): 52%
- viability, T/C (second compound 0.00316 µM, first compound 10 µM): 5.49%
- viability, T/C [9]: 46.2%
- viability, T/C [10]: 42.2%
- viability, T/C (second compound 0.01 µM, first compound 0.316 µM): 49.5%
- viability, T/C (second compound 0.01 µM, first compound 1 µM): 35.5%
- viability, T/C (second compound 0.01 µM, first compound 3.16 µM): 44%
- viability, T/C (second compound 0.01 µM, first compound 10 µM): 6.01%
- viability, T/C [11]: 26.9%
- viability, T/C [12]: 22.6%
- viability, T/C (second compound 0.0316 µM, first compound 0.316 µM): 25.4%
- viability, T/C (second compound 0.0316 µM, first compound 1 µM): 25.5%
- viability, T/C (second compound 0.0316 µM, first compound 3.16 µM): 24.4%
- viability, T/C (second compound 0.0316 µM, first compound 10 µM): 1.19%
- viability, T/C [13]: 11.9%
- viability, T/C [14]: 16.5%
- viability, T/C (second compound 0.1 µM, first compound 0.316 µM): 12.2%
- viability, T/C (second compound 0.1 µM, first compound 1 µM): 11.8%
- viability, T/C (second compound 0.1 µM, first compound 3.16 µM): 8.68%
- viability, T/C (second compound 0.1 µM, first compound 10 µM): 0.34%
- viability, T/C [15]: 5.51%
- viability, T/C [16]: 5.07%
- viability, T/C (second compound 0.316 µM, first compound 0.316 µM): 3.84%
- viability, T/C (second compound 0.316 µM, first compound 1 µM): 4.98%
- viability, T/C (second compound 0.316 µM, first compound 3.16 µM): 3.94%
- viability, T/C (second compound 0.316 µM, first compound 10 µM): 0.16%
- viability, T/C [17]: 1.33%
- viability, T/C [18]: 1.62%
- viability, T/C (second compound 1 µM, first compound 0.316 µM): 1.12%
- viability, T/C (second compound 1 µM, first compound 1 µM): 1.34%
- viability, T/C (second compound 1 µM, first compound 3.16 µM): 1.37%
- viability, T/C (second compound 1 µM, first compound 10 µM): 0.31%

Compound: CC1(C)CCC(CN2CCN(c3ccc(C(=O)NS(=O)(=O)c4ccc(NCC5CCOCC5)c([N+](=O)[O-])c4)c(Oc4cnc5[nH]ccc5c4)c3)CC2)=C(c2ccc(Cl)cc2)C1
- viability, T/C (compound 0.0316 µM): 96.8% [middle of 4 runs]
- viability, T/C (compound 0.1 µM): 95.1% [middle of 4 runs]
- viability, T/C (compound 0.316 µM): 92.7% [middle of 4 runs]
- viability, T/C (compound 1 µM): 102% [middle of 4 runs]
- viability, T/C (compound 10 µM): 32.5% [middle of 4 runs]
- IC50 (curve of compound): 7.57 µM [middle of 4 runs]

Compound: Cn1nccc1Nc1nccc(-c2ccn(C(CO)c3ccc(Cl)c(F)c3)c(=O)c2)n1 (centres undefined)
- viability, T/C (compound 0.0316 µM): 90.7% [middle of 4 runs]
- viability, T/C (compound 0.1 µM): 97.3% [middle of 4 runs]
- viability, T/C (compound 0.316 µM): 91.1% [middle of 4 runs]
- viability, T/C (compound 1 µM): 90% [middle of 4 runs]
- viability, T/C (compound 3.16 µM): 82.7% [middle of 4 runs]
- viability, T/C (compound 10 µM): 77.9% [middle of 4 runs]
- IC50 (curve of compound): > 10000 nM

Compound: Cn1cnc2c(F)c(Nc3ccc(Br)cc3Cl)c(C(=O)NOCCO)cc21 + Cc1nc(NC(=O)N2CCCC2C(N)=O)sc1-c1ccnc(C(C)(C)C(F)(F)F)c1
- IC50 [3]: 748 nM
- IC50 [4]: 308 nM
- IC50 [5]: 36.8 nM
- IC50 [6]: < 9.49 nM
- IC50 (curve of first compound, second compound 3.16 µM): < 9.49 nM
- IC50 (curve of first compound, second compound 10 µM): < 9.49 nM
- viability, T/C (second compound 0.0316 µM, first compound 0.00949 µM): 85.7%
- viability, T/C (second compound 0.0316 µM, first compound 0.03 µM): 87.1%
- viability, T/C (second compound 0.0316 µM, first compound 0.0949 µM): 74.3%
- viability, T/C (second compound 0.0316 µM, first compound 0.3 µM): 59.4%
- viability, T/C (second compound 0.0316 µM, first compound 0.949 µM): 49.5%
- viability, T/C (second compound 0.0316 µM, first compound 3 µM): 31.9%
- viability, T/C (second compound 0.1 µM, first compound 0.00949 µM): 78.1%
- viability, T/C (second compound 0.1 µM, first compound 0.03 µM): 70.1%
- viability, T/C (second compound 0.1 µM, first compound 0.0949 µM): 52.7%
- viability, T/C (second compound 0.1 µM, first compound 0.3 µM): 51.4%
- viability, T/C (second compound 0.1 µM, first compound 0.949 µM): 47.4%
- viability, T/C (second compound 0.1 µM, first compound 3 µM): 28.9%
- viability, T/C (second compound 0.316 µM, first compound 0.00949 µM): 61.3%
- viability, T/C (second compound 0.316 µM, first compound 0.03 µM): 50.8%
- viability, T/C (second compound 0.316 µM, first compound 0.0949 µM): 43%
- viability, T/C (second compound 0.316 µM, first compound 0.3 µM): 33.9%
- viability, T/C (second compound 0.316 µM, first compound 0.949 µM): 26.1%
- viability, T/C (second compound 0.316 µM, first compound 3 µM): 20.1%
- viability, T/C (second compound 1 µM, first compound 0.00949 µM): 44%
- viability, T/C (second compound 1 µM, first compound 0.03 µM): 35%
- viability, T/C (second compound 1 µM, first compound 0.0949 µM): 24.9%
- viability, T/C (second compound 1 µM, first compound 0.3 µM): 24.3%
- viability, T/C (second compound 1 µM, first compound 0.949 µM): 12.1%
- viability, T/C (second compound 1 µM, first compound 3 µM): 7.18%
- viability, T/C (second compound 3.16 µM, first compound 0.00949 µM): 21.1%
- viability, T/C (second compound 3.16 µM, first compound 0.03 µM): 15.3%
- viability, T/C (second compound 3.16 µM, first compound 0.0949 µM): 11.3%
- viability, T/C (second compound 3.16 µM, first compound 0.3 µM): 7.62%
- viability, T/C (second compound 3.16 µM, first compound 0.949 µM): 5.36%
- viability, T/C (second compound 3.16 µM, first compound 3 µM): 1.67%
- viability, T/C (second compound 10 µM, first compound 0.00949 µM): 6.2%
- viability, T/C (second compound 10 µM, first compound 0.03 µM): 5.44%
- viability, T/C (second compound 10 µM, first compound 0.0949 µM): 4.18%
- viability, T/C (second compound 10 µM, first compound 0.3 µM): 2.71%
- viability, T/C (second compound 10 µM, first compound 0.949 µM): 1.25%
- viability, T/C (second compound 10 µM, first compound 3 µM): 0.42%
